# Test system: 485368-065-R3-J5-PDC spheroids with HUVEC/MSC, viability
# Assay: Anticancer human tumor 485368-065-R3-J5-PDC patient-derived pancreatic carcinoma cell line growth inhibition [RAS]
# Settings: for IC50: curve of first compound; for viability, T/C: stronger effect = lower value
# Outline: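 Tumour cells grown as complex spheroids with HUVEC endothelial cells and mesenchymal stem cells, treated with RAS pathway inhibitor combinations. Each agent spans half-log steps from near clinical Cmax, or 10 microM where Cmax is unknown.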
# [1] = second compound 0.000949 µM, first compound 0.0316 µM
# [2] = second compound 0.000949 µM, first compound 0.1 µM
# [3] = second compound 0.000949 µM, first compound 0.316 µM
# [4] = second compound 0.000949 µM, first compound 1 µM
# [5] = second compound 0.000949 µM, first compound 3.16 µM
# [6] = second compound 0.000949 µM, first compound 10 µM
# [7] = second compound 0.003 µM, first compound 0.0316 µM
# [8] = second compound 0.003 µM, first compound 0.1 µM
# [9] = second compound 0.003 µM, first compound 0.316 µM
# [10] = second compound 0.003 µM, first compound 1 µM
# [11] = second compound 0.003 µM, first compound 3.16 µM
# [12] = second compound 0.003 µM, first compound 10 µM
# [13] = second compound 0.00949 µM, first compound 0.0316 µM
# [14] = second compound 0.00949 µM, first compound 0.1 µM
# [15] = second compound 0.00949 µM, first compound 0.316 µM
# [16] = second compound 0.00949 µM, first compound 1 µM
# [17] = second compound 0.00949 µM, first compound 3.16 µM
# [18] = second compound 0.00949 µM, first compound 10 µM
# [19] = second compound 0.03 µM, first compound 0.0316 µM
# [20] = second compound 0.03 µM, first compound 0.1 µM
# [21] = second compound 0.03 µM, first compound 0.316 µM
# [22] = second compound 0.03 µM, first compound 1 µM
# [23] = second compound 0.03 µM, first compound 3.16 µM
# [24] = second compound 0.03 µM, first compound 10 µM
# [25] = second compound 0.0949 µM, first compound 0.0316 µM
# [26] = second compound 0.0949 µM, first compound 0.1 µM
# [27] = second compound 0.0949 µM, first compound 0.316 µM
# [28] = second compound 0.0949 µM, first compound 1 µM
# [29] = second compound 0.0949 µM, first compound 3.16 µM
# [30] = second compound 0.0949 µM, first compound 10 µM
# [31] = second compound 0.3 µM, first compound 0.0316 µM
# [32] = second compound 0.3 µM, first compound 0.1 µM
# [33] = second compound 0.3 µM, first compound 0.316 µM
# [34] = second compound 0.3 µM, first compound 1 µM
# [35] = second compound 0.3 µM, first compound 3.16 µM
# [36] = second compound 0.3 µM, first compound 10 µM
# 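Further: spheroids exposed to agents for seven days before readout.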
compound,measurement,setting,value
CC(=O)OC12COC1CC(O)C1(C)C(=O)C(O)C3=C(C)C(OC(=O)C(O)C(NC(=O)OC(C)(C)C)c4ccccc4)CC(O)(C(OC(=O)c4ccccc4)C21)C3(C)C (stereo unspecified) + CCn1c(-c2cccnc2C(C)OC)c2c3cc(ccc31)N1CCOC(CC(NC(=O)C(C(C)C)N(C)C(=O)C3(F)CCN(C(=O)C#CC(C)(C)N(C)C)CC3)C(=O)N3CCCC(N3)C(=O)OCC(C)(C)C2)C1,IC50,second compound 0.000949 µM,< 31.6 nM
same,IC50,second compound 0.003 µM,< 31.6 nM
same,IC50,second compound 0.00949 µM,< 31.6 nM
same,IC50,second compound 0.03 µM,< 31.6 nM
same,IC50,second compound 0.0949 µM,< 31.6 nM
same,IC50,second compound 0.3 µM,< 31.6 nM
same,"viability, T/C",[1],12.6%
same,"viability, T/C",[2],14.3%
same,"viability, T/C",[3],13.1%
same,"viability, T/C",[4],13.9%
same,"viability, T/C",[5],21.4%
same,"viability, T/C",[6],25.7%
same,"viability, T/C",[7],15.6%
same,"viability, T/C",[8],13.6%
same,"viability, T/C",[9],14%
same,"viability, T/C",[10],16.9%
same,"viability, T/C",[11],18.9%
same,"viability, T/C",[12],25.5%
same,"viability, T/C",[13],13.2%
same,"viability, T/C",[14],15.1%
same,"viability, T/C",[15],14%
same,"viability, T/C",[16],22.6%
same,"viability, T/C",[17],21.1%
same,"viability, T/C",[18],27.4%
same,"viability, T/C",[19],12.2%
same,"viability, T/C",[20],18.4%
same,"viability, T/C",[21],19.4%
same,"viability, T/C",[22],16.6%
same,"viability, T/C",[23],21.1%
same,"viability, T/C",[24],26%
same,"viability, T/C",[25],10.7%
same,"viability, T/C",[26],16.4%
same,"viability, T/C",[27],14.5%
same,"viability, T/C",[28],12.2%
same,"viability, T/C",[29],21.3%
same,"viability, T/C",[30],27.5%
same,"viability, T/C",[31],13.1%
same,"viability, T/C",[32],16.8%
same,"viability, T/C",[33],15.9%
same,"viability, T/C",[34],17.6%
same,"viability, T/C",[35],27.7%
same,"viability, T/C",[36],27.5%
NC1c2ccccc2OC12CCN(c1cnc3c(N4CCCc5ncccc54)n[nH]c3n1)CC2 (stereo unspecified) + CCn1c(-c2cccnc2C(C)OC)c2c3cc(ccc31)N1CCOC(CC(NC(=O)C(C(C)C)N(C)C(=O)C3(F)CCN(C(=O)C#CC(C)(C)N(C)C)CC3)C(=O)N3CCCC(N3)C(=O)OCC(C)(C)C2)C1,IC50,second compound 0.000949 µM,> 10000 nM
same,IC50,second compound 0.003 µM,> 10000 nM
same,IC50,second compound 0.00949 µM,> 10000 nM
same,IC50,second compound 0.03 µM,> 10000 nM
same,IC50,second compound 0.0949 µM,> 10000 nM
same,IC50,second compound 0.3 µM,> 10000 nM
same,"viability, T/C",[1],84.7%
same,"viability, T/C",[2],84.3%
same,"viability, T/C",[3],81.9%
same,"viability, T/C",[4],91.1%
same,"viability, T/C",[5],86.6%
same,"viability, T/C",[6],81.9%
same,"viability, T/C",[7],85.7%
same,"viability, T/C",[8],90.1%
same,"viability, T/C",[9],82.8%
same,"viability, T/C",[10],80.5%
same,"viability, T/C",[11],92.8%
same,"viability, T/C",[12],87.9%
same,"viability, T/C",[13],89.7%
same,"viability, T/C",[14],90.3%
same,"viability, T/C",[15],82.6%
same,"viability, T/C",[16],78.6%
same,"viability, T/C",[17],88.9%
same,"viability, T/C",[18],84.9%
same,"viability, T/C",[19],98.7%
same,"viability, T/C",[20],93%
same,"viability, T/C",[21],82.7%
same,"viability, T/C",[22],79.2%
same,"viability, T/C",[23],83.6%
same,"viability, T/C",[24],81.4%
same,"viability, T/C",[25],82.3%
same,"viability, T/C",[26],86.8%
same,"viability, T/C",[27],81.1%
same,"viability, T/C",[28],77%
same,"viability, T/C",[29],87.7%
same,"viability, T/C",[30],76.5%
same,"viability, T/C",[31],78.3%
same,"viability, T/C",[32],86.1%
same,"viability, T/C",[33],75.3%
same,"viability, T/C",[34],81.1%
same,"viability, T/C",[35],98.2%
same,"viability, T/C",[36],69.7%
Nc1ccn(C2OC(CO)C(O)C2(F)F)c(=O)n1 (stereo unspecified) + CCn1c(-c2cccnc2C(C)OC)c2c3cc(ccc31)N1CCOC(CC(NC(=O)C(C(C)C)N(C)C(=O)C3(F)CCN(C(=O)C#CC(C)(C)N(C)C)CC3)C(=O)N3CCCC(N3)C(=O)OCC(C)(C)C2)C1,IC50,second compound 0.000949 µM,7.04 nM
same,IC50,second compound 0.003 µM,6.7 nM
same,IC50,second compound 0.00949 µM,9.21 nM
same,IC50,second compound 0.03 µM,6.7 nM
same,IC50,second compound 0.0949 µM,6.84 nM
same,IC50,second compound 0.3 µM,6.66 nM
same,"viability, T/C","second compound 0.000949 µM, first compound 0.00316 µM",94.9%
same,"viability, T/C","second compound 0.000949 µM, first compound 0.01 µM",30.4%
same,"viability, T/C",[1],11.6%
same,"viability, T/C",[2],11%
same,"viability, T/C",[3],14.4%
same,"viability, T/C",[4],11.8%
same,"viability, T/C","second compound 0.003 µM, first compound 0.00316 µM",89.2%
same,"viability, T/C","second compound 0.003 µM, first compound 0.01 µM",29.2%
same,"viability, T/C",[7],10.5%
same,"viability, T/C",[8],9.86%
same,"viability, T/C",[9],13.8%
same,"viability, T/C",[10],13.4%
same,"viability, T/C","second compound 0.00949 µM, first compound 0.00316 µM",94.2%
same,"viability, T/C","second compound 0.00949 µM, first compound 0.01 µM",46.6%
same,"viability, T/C",[13],11.3%
same,"viability, T/C",[14],11.4%
same,"viability, T/C",[15],11.3%
same,"viability, T/C",[16],12.1%
same,"viability, T/C","second compound 0.03 µM, first compound 0.00316 µM",89.7%
same,"viability, T/C","second compound 0.03 µM, first compound 0.01 µM",28.8%
same,"viability, T/C",[19],12.1%
same,"viability, T/C",[20],12.9%
same,"viability, T/C",[21],11.7%
same,"viability, T/C",[22],10.4%
same,"viability, T/C","second compound 0.0949 µM, first compound 0.00316 µM",96.9%
same,"viability, T/C","second compound 0.0949 µM, first compound 0.01 µM",26.8%
same,"viability, T/C",[25],11.9%
same,"viability, T/C",[26],9.81%
same,"viability, T/C",[27],12.7%
same,"viability, T/C",[28],10.6%
same,"viability, T/C","second compound 0.3 µM, first compound 0.00316 µM",94%
same,"viability, T/C","second compound 0.3 µM, first compound 0.01 µM",25.7%
same,"viability, T/C",[31],12.1%
same,"viability, T/C",[32],11%
same,"viability, T/C",[33],11.5%
same,"viability, T/C",[34],9.33%
